Measured values reported in US12202828B2, “Bicyclic heterocycle compounds and their uses in therapy” (ASTEX THERAPEUTICS LIMITED, priority 2013, dated 2025).
Several values for one entry are separate records, joined by “and”; a condition that tells them apart may be missing. Equal values may be shown once. Where a name gives a salt, the structure may show the parent alone.

Assays:
[1] = target: T1, XIAP-Caspase-9 in HEK293-XIAP-Caspase-9 cells (Homo sapiens, UniProt P98170); experiment: HEK293-XIAP-Caspase-9 immunoprecipitation (IP) MSD assay; type: cell-based; conditions: compound 2 h at 37° C.; read-out: HEK293-X-C9 IP
T1 construct: FLAG; expressed in transfected cells
Experimental: Stable HEK293-XIAP-Caspase-9 cells were plated out into 96-well plates [200 μl/well at 1×10^6 cells/mL in cultured complete medium (DMEM+10% FBS+0.5 mg/mL Geneticin (Invitrogen)] and left overnight at 37° C. to recover. Compounds were added to duplicate wells in 0.1% DMSO for 2 h at 37° C. Cells were lysed in 50 μl 1×MSD lysis buffer (1% Triton X-100 in 20 mM Tris·Cl (pH 7.6), 150 mM NaCl including protease inhibitors) for 20 min rocking at room temperature. Streptavidin high bind MSD plate (L15SB-2) were coated with biotinylated anti-FLAG M2 antibody (Sigma F9291) at 25 μl/well with a 5 μg/mL dilution of antibody in PBS for 1 h, shaking; followed by blocking for 1 h with 150 μl 3% BSA/TBST. Cell lysate (25 μl) was added to the 96-well anti-FLAG coated MSD plate and placed on shaker for 4 h at room temperature. […] Plates were washed 4 times with 150 μl TBST, and 150 μl/well 1×MSD read buffer (R92TC-2) added before reading each plate.
EC50 values were determined from dose-response plots using nonlinear least-squares analysis.

[2] = target: T2, hERG ion channel (Homo sapiens, UniProt Q12809); experiment: Population Patch Clamp (PPC) hERG assay in CHO K1 cells; type: cell-based
T2 construct: expressed in transfected cells; host or cells: CHO K1
Experimental: Inhibition of the hERG channel was measured by automated patch clamp assay in CHO K1 cells, stably transfected with the hERG ion channel. PPC measurements were performed using an IonWorks Quattro instrument (Molecular Devices Corporation, Union City, CA) using a 384 well PatchPlate (Molecular Devices Corporation) with 64 apertures per well. Each concentration of test compound was tested in duplicate wells. Amphotericin B was used to obtain electrical access to the cell interior at a final concentration of 200 μg/mL. Human ether-à-gogo related gene (hERG) currents were measured with a prepulse to +40 mV (2 s) from the holding potential of −80 mV, followed by a step to −50 mV (2 s) to elicit the deactivating tail currents, before returning to the holding potential for 1s. Compounds were incubated for 600s between the pre- and post-compound reads. The external recording solution used was 130 mM Na Gluconate, 20 mM NaCl, 4 mM KCl, 1 mM MgCl2, 1.8 mM CaCl2, 10 mM Hepes, 5 mM Glucose, pH to 7.3 with NaOH. All data were filtered for seal quality, seal drop, and current amplitude. The maximum current amplitude of the 3rd pulse tail current was calculated before (Pre) and after (Post) compound addition and the amount of block assessed by dividing the Post-compound current amplitude by the Pre-compound current amplitude.

T2 sequence (Q12809 whole entry): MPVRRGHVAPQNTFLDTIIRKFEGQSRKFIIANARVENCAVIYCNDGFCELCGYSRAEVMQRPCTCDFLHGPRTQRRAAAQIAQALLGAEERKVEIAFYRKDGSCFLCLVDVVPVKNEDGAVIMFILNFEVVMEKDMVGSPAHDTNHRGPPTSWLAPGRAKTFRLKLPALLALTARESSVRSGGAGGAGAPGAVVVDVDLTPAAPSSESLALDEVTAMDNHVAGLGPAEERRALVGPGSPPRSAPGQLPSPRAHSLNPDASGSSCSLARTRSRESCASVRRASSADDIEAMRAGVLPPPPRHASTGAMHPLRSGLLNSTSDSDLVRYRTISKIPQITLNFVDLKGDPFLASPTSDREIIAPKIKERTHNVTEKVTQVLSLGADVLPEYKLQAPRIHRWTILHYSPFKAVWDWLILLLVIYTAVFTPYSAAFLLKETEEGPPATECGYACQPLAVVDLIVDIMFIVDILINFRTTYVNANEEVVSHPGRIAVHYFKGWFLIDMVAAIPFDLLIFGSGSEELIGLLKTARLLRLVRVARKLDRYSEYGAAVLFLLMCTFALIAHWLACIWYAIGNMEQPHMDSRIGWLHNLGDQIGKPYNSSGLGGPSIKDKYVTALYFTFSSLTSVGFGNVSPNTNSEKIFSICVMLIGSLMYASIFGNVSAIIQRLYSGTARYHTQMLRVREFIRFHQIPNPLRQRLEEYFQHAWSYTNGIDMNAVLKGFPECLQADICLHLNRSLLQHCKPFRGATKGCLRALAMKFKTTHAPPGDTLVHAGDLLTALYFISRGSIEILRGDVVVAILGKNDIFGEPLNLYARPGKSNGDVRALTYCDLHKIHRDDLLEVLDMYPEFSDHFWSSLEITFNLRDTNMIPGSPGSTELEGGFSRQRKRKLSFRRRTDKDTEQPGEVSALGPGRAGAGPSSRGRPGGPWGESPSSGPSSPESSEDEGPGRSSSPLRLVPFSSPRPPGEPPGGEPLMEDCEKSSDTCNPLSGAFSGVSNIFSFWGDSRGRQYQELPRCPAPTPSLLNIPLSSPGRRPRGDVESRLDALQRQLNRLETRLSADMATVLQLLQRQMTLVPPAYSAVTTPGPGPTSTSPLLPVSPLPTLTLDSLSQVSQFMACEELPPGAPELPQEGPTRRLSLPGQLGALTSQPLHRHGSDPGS
T1 sequence (P98170 whole entry): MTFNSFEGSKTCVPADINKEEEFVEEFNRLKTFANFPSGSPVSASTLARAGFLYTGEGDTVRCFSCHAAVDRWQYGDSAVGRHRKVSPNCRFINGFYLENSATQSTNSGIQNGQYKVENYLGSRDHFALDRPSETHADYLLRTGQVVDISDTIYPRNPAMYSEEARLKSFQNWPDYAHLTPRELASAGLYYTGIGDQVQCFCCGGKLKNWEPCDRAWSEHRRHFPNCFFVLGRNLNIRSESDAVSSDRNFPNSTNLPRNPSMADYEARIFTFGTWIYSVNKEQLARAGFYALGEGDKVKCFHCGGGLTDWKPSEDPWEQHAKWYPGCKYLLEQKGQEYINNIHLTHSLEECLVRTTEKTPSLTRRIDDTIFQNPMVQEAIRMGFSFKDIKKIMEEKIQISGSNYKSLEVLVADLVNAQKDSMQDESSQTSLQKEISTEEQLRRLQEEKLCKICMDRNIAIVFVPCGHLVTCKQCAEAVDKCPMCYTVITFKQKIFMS

SMILES	EC50 [1]	further results
C[C@@H]1CN(CC(=O)N2CC(C)(C)c3nc(C(O)CO)c(Cc4ccc(F)cc4)cc32)[C@@H](CN2CCOC[C@H]2C)CN1 (single isomer, unassigned) [Example 13, 1-[5-((R or S)-1,2-Dihydroxyethyl)-6-[(4-fluorophenyl)methyl]-3,3-dimethyl-1H,2H,3H-pyrrolo [3,2-b]pyridin-1-yl]-2-[(2R,5R)-5-methyl-2-{[(3R)-3-methylmorpholin-4-yl]methyl}piperazin-1-yl] ethan-1-one dihydrochloride]	4.4 nM	hERG PPC (PI) ([2]; @ 300 μM, dihydrochloride): 46% @ 300
C[C@@H]1CN(CC(=O)N2CC(C)(C)c3nc(C(O)CO)c(Cc4ccc(F)cc4)cc32)[C@@H](CN2CCOC[C@H]2C)CN1 (single isomer, unassigned) [Example 14, 1-[5-((R or S)-1,2-Dihydroxyethyl)-6-[(4-fluorophenyl)methyl]-3,3-dimethyl-1H,2H,3H-pyrrolo [3,2-b]pyridin-1-yl]-2-[(2R,5R)-5-methyl-2-{[(3R)-3-methylmorpholin-4-yl]methyl}piperazin-1-yl] ethan-1-one dihydrochloride]	13 nM	hERG PPC (PI) ([2]; @ 300 μM, dihydrochloride): 58% @ 300
C[C@@H]1CN(CC(=O)N2CC(C)(C)c3nc(C(O)CO)c(Cc4ccc(F)cc4)cc32)[C@@H](CN2[C@H](C)COC[C@H]2C)CN1 (single isomer, unassigned) [Example 21, 1-[5-((R or S)-1,2-Dihydroxyethyl)-6-[(4-fluorophenyl)methyl]-3,3-dimethyl-1H,2H,3H-pyrrolo[3,2-b]pyridin-1-yl]-2-[(2R,5R)-2-{[(3R,5R)-3,5-dimethylmorpholin-4-yl]methyl}-5-methylpiperazin-1-yl] ethan-1-one dihydrochloride]	2.1 nM	hERG PPC (PI) ([2]; @ 100 μM): 35% @ 100
COCC(O)c1nc2c(cc1Cc1ccc(F)cc1)N(C(=O)CN1C[C@@H](C)NC[C@@H]1CN1CCOC[C@H]1C)CC2(C)C (single isomer, unassigned) [Example 26, 1-{6-[(4-Fluorophenyl)methyl]-5-((R or S)-1-hydroxy-2-methoxyethyl)-3,3-dimethyl-1H,2H,3H-pyrrolo[3,2-b]pyridin-1-yl}-2-[(2R,5R)-5-methyl-2-{[(3R)-3-methylmorpholin-4-yl]methyl}piperazin-1-yl] ethan-1-one trihydrochloride]	12 nM	hERG PPC (PI) ([2]; @ 31.3 μM): 41% @ 31.3
COC(CO)c1nc2c(cc1Cc1ccc(F)cc1)N(C(=O)CN1C[C@@H](C)NC[C@@H]1CN1CCOC[C@H]1C)CC2(C)C (single isomer, unassigned) [Example 27, 1-{6-[(4-Fluorophenyl)methyl]-5-((R or S)-2-hydroxy-1-methoxyethyl)-3,3-dimethyl-1H,2H,3H-pyrrolo[3,2-b]pyridin-1-yl}-2-[(2R,5R)-5-methyl-2-{[(3R)-3-methylmorpholin-4-yl]methyl}piperazin-1-yl] ethan-1-one trihydrochloride]	6 nM and 9.9 nM	hERG PPC (PI) ([2]; @ 1000 μM): 55% @ 1000
COCC(O)c1nc2c(cc1Cc1ccc(F)cc1)N(C(=O)CN1C[C@@H](C)NC[C@@H]1CN1CCOC[C@H]1C)CC2(C)C (single isomer, unassigned) [Example 28, 1-{6-[(4-Fluorophenyl)methyl]-5-((R or S)-1-hydroxy-2-methoxyethyl)-3,3-dimethyl-1H,2H,3H-pyrrolo[3,2-b]pyridin-1-yl}-2-[(2R,5R)-5-methyl-2-{[(3R)-3-methylmorpholin-4-yl]methyl}piperazin-1-yl] ethan-1-one trihydrochloride]	4.4 nM	hERG PPC (PI) ([2]; @ 125 μM): 45% @ 125
COC(CO)c1nc2c(cc1Cc1ccc(F)cc1)N(C(=O)CN1C[C@@H](C)NC[C@@H]1CN1CCOC[C@H]1C)CC2(C)C (single isomer, unassigned) [Example 29, 1-{6-[(4-Fluorophenyl)methyl]-5-((R or S)-2-hydroxy-1-methoxyethyl)-3,3-dimethyl-1H,2H,3H-pyrrolo[3,2-b]pyridin-1-yl}-2-[(2R,5R)-5-methyl-2-{[(3R)-3-methylmorpholin-4-yl]methyl}piperazin-1-yl] ethan-1-one]	13 nM	hERG PPC (PI) ([2]; @ 500 μM): 53% @ 500
C[C@@H]1CN(CC(=O)N2CC(C)(C)c3nc(CO)c(Cc4ccccc4F)cc32)[C@@H](CN2CCOC[C@H]2C)CN1 [Example 4, 1-{6-[(2-Fluorophenyl)methyl]-5-(hydroxymethyl)-3,3-dimethyl-1H,2H,3H-pyrrolo[3,2-b]pyridin-1-yl}-2-[(2R,5R)-5-methyl-2-{[(3R)-3-methylmorpholin-4-yl]methyl}piperazin-1-yl] ethan-1-one dihydrochloride]	2.6 nM	hERG PPC (PI) ([2]; @ 30 μM): 47% @ 30
C[C@@H]1CN(CC(=O)N2CC(C)(C)c3[nH]c(=O)c(Cc4ccc(F)cc4)cc32)[C@@H](CN2CCOC[C@H]2C)CN1 [Example 5, 6-[(4-Fluorophenyl)methyl]-3,3-dimethyl-1-{2-[(2R,5R)-5-methyl-2-{[(3R)-3-methylmorpholin-4-yl]methyl}piperazin-1-yl]acetyl}-1H,2H,3H,4H,5H-pyrrolo[3,2-b]pyridin-5-one dihydrochloride]	5.3 nM	hERG PPC (PI) ([2]; @ 300 μM): 42% @ 300
C[C@@H]1CN(CC(=O)N2CC(C)(C)c3c2cc(Cc2ccc(F)cc2)c(=O)n3C)[C@@H](CN2CCOC[C@H]2C)CN1 [Example 6, 6-[(4-Fluorophenyl)methyl]-3,3,4-trimethyl-1-{2-[(2R,5R)-5-methyl-2-{[(3R)-3-methylmorpholin-4-yl]methyl}piperazin-1-yl]acetyl}-1H,2H,3H,4H,5H-pyrrolo[3,2-b]pyridin-5-one dihydrochloride]	2 nM	hERG PPC (PI) ([2]; @ 250 μM): 56% @ 250
C[C@@H]1CN(CC(=O)N2CC(C)(C)c3[nH]c(=O)c(Cc4ccc(F)cc4F)cc32)[C@@H](CN2[C@H](C)COC[C@H]2C)CN1 [Example 7, 6-[(2,4-Difluorophenyl)methyl]-1-{2-[(2R,5R)-2-{[(3R,5R)-3,5-dimethylmorpholin-4-yl]methyl}-5-methylpiperazin-1-yl]acetyl}-3,3-dimethyl-1H,2H,3H,4H,5H-pyrrolo[3,2-b]pyridin-5-one dihydrochloride]	1.2 nM	hERG PPC (PI) ([2]; @ 100 μM): 33% @ 100
C[C@@H]1CN(CC(=O)N2CC(C)(C)c3[nH]c(=O)c(Cc4ccc(F)cc4F)cc32)[C@@H](CN2CCOC[C@H]2C)CN1 [Example 8, 6-[(2,4-Difluorophenyl)methyl]-3,3-dimethyl-1-{2-[(2R,5R)-5-methyl-2-{[(3R)-3-methylmorpholin-4-yl]methyl}piperazin-1-yl]acetyl}-1H,2H,3H,4H,5H-pyrrolo[3,2-b]pyridin-5-one dihydrochloride]	5.4 nM	hERG PPC (PI) ([2]; @ 300 μM): 39% @ 300
C[C@@H]1CN(CC(=O)N2CC(C)(C)c3c2cc(Cc2ccccc2F)c(=O)n3C)[C@@H](CN2CCOC[C@H]2C)CN1 [Example 9, 6-[(2-Fluorophenyl)methyl]-3,3,4-trimethyl-1-{2-[(2R,5R)-5-methyl-2-{[(3R)-3-methylmorpholin-4-yl]methyl}piperazin-1-yl]acetyl}-1H,2H,3H,4H,5H-pyrrolo[3,2-b]pyridin-5-one dihydrochloride]	3 nM	hERG PPC (PI) ([2]; @ 300 μM): 50% @ 300
C[C@@H]1CN(CC(=O)N2CC(C)(C)c3nc(CO)c(Cc4ccc(F)cc4F)cc32)[C@@H](CN2CCOC[C@H]2C)CN1 [Example 11, 1-{6-[(2,4-Difluorophenyl)methyl]-5-(hydroxymethyl)-3,3-dimethyl-1H,2H,3H-pyrrolo[3,2-b]pyridin-1-yl}-2-[(2R,5R)-5-methyl-2-{[(3R)-3-methylmorpholin-4-yl]methyl}piperazin-1-yl] ethan-1-one dihydrochloride]	1.1 nM	IC50 ([2]; CHO K1 cells stably transfected with hERG): 51000 nM
C[C@@H]1CN(CC(=O)N2CC(C)(C)c3c2cc(Cc2ccc(F)cc2F)c(=O)n3C)[C@@H](CN2C[C@H](C)OC[C@H]2C)CN1 [Example 25, 6-[(2,4-Difluorophenyl)methyl]-1-{2-[(2R,5R)-2-{[(2S,5R)-2,5-dimethylmorpholin-4-yl]methyl}-5-methylpiperazin-1-yl]acetyl}-3,3,4-trimethyl-1H,2H,3H,4H,5H-pyrrolo[3,2-b]pyridin-5-one dihydrochloride]	2.7 nM	
